PubChem BioAssay (NCI)
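All cell lines were grown in 96-well plates and treated with compound for 48 hours. TGI marks complete inhibition of growth.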

Tests used:
Experiment in all cases: NCI tumour cell line growth inhibition, 48 h
DMS 114 small cell lung = tested on: DMS 114 small cell lung
DMS 273 small cell lung = tested on: DMS 273 small cell lung
LXFL 529 NSCLC = tested on: LXFL 529 NSCLC
DLD-1 colon = tested on: DLD-1 colon
HOP-18 NSCLC = tested on: HOP-18 NSCLC
M19-MEL melanoma = tested on: M19-MEL melanoma
SNB-78 CNS = tested on: SNB-78 CNS
KM20L2 colon = tested on: KM20L2 colon
XF 498 CNS = tested on: XF 498 CNS
SN12K1 renal = tested on: SN12K1 renal
P388 leukemia = tested on: P388 leukemia
P388/ADR leukemia = tested on: P388/ADR leukemia
RXF-631 renal = tested on: RXF-631 renal

SMILES	TGI (DMS 114 small cell lung) [µM]	TGI (DMS 273 small cell lung) [µM]	TGI (LXFL 529 NSCLC) [µM]	TGI (DLD-1 colon) [µM]	TGI (HOP-18 NSCLC) [µM]	TGI (M19-MEL melanoma) [µM]	TGI (SNB-78 CNS) [µM]	TGI (KM20L2 colon) [µM]	TGI (XF 498 CNS) [µM]	TGI (SN12K1 renal) [µM]	TGI (P388 leukemia) [µM]	TGI (P388/ADR leukemia) [µM]	TGI (RXF-631 renal) [µM]
CCOc1ccccc1NC(=O)CSc1nnc(Cc2ccccc2)o1	32.4	60.2	32.1	55.4	54.7	> 100	> 100	> 100					
COc1ccc2c(c1)CC[C@@H]1C2CC[C@]2(C)C(=N\O)/C(=N/O)CC12 (stereo partly specified)		26.7	26.8	36.6	30.4	37	47.5	18.5	29.6				
CC1(OCc2ccccc2)C(=O)N2C1N(C(=O)OCc1ccccc1)CC2(C)C (stereo unspecified)	> 100	> 100	> 100	> 100		> 100		> 100	75				
Cc1ccc([N+]2=NC(c3ccc([N+](=O)[O-])cc3)=NN(c3ccccc3)C2)cc1	> 100	> 100	> 100	> 100		> 100	> 100	> 100	> 100				
ClCCN(CC#CCCCC#CCN(CCCl)CCCl)CCCl	15.8	16.6	28.3	35.7	44.5	29.5	57.5	27.7		25.3	9.73	9.09	23.8
CC(C)NC1CCCCC2c3cc(F)ccc3[C@]12O (stereo partly specified)	> 100	> 100	> 100	> 100	> 100	> 100	> 100	> 100					
CC(/C=C/C=C\C=C\C=C(/C)C(=O)NC(C)CO)=C\C(C)C(O)/C(C)=C/C(C)CCc1ccccc1 (stereo unspecified)	2.47	17.1	18.7	31.6	24.2	19.4	25.2	25.1	22				
COc1cc(C(=O)O)cc2c1[nH]c1ccccc12	> 25	> 25	> 25	> 25		> 25	> 25	> 25					
CC(=O)OC1COC(n2c(O)c(N=Nc3ccc([N+](=O)[O-])cc3)c3cc(Br)c([N+](=O)[O-])cc32)C(OC(C)=O)C1OC(C)=O (stereo unspecified)		> 100	> 100	> 100	> 100	> 100	75.8	> 100	> 100				> 100
CCN1C(=O)/C(=C\c2coc3ccccc3c2=O)SC1=S	> 100	> 100	> 100	> 100	> 100	> 100	> 100	> 100	> 100				
SCc1ccc(-c2ccc(CS)cc2)cc1	25.6	58.4	28.7	34.1	30.9	35.7	51	53	36.6				
CC(/C=C/c1ccccc1)=N\N=C(C)\C=C\c1ccccc1		> 100	> 100	> 100		> 100	> 100	> 100	> 100				
